Data from ChEMBL document CHEMBL5370601, “Synthesis and Binding Mode Predictions of Novel Siglec-7 Ligands” (J Med Chem, 2023).

Legend:
[1] = Solubility in water; format: physicochemical; conditions: buffer
[2] = Solubility in methanol; format: physicochemical
[3] = biological target: Sialic acid-binding Ig-like lectin 7 (Homo sapiens) (UniProt Q9Y286); assay: Potency index, ratio of test compound IC50 to (2R,4S,5R,6R)-2-(3-(4-([1,1'-biphenyl]-4-yl)-1H-1,2,3-triazol-1-yl)propoxy)-5-acetamido-4-hydroxy-6-((1R,2R)-1,2,3-trihydroxypropyl)tetrahydro-2H-pyran-2-carboxylate Sodium IC50 for competitive inhibition of IgG1-fused human Siglec-7 Fc domain preincubated for 10 mins followed by addition of red blood cells incubated for 20 mins on ice by sandwich FACS analysis; conditions: time 30.0 min
Sequence of Sialic acid-binding Ig-like lectin 7 (Homo sapiens) (Q9Y286 whole entry, the tested form may be a part): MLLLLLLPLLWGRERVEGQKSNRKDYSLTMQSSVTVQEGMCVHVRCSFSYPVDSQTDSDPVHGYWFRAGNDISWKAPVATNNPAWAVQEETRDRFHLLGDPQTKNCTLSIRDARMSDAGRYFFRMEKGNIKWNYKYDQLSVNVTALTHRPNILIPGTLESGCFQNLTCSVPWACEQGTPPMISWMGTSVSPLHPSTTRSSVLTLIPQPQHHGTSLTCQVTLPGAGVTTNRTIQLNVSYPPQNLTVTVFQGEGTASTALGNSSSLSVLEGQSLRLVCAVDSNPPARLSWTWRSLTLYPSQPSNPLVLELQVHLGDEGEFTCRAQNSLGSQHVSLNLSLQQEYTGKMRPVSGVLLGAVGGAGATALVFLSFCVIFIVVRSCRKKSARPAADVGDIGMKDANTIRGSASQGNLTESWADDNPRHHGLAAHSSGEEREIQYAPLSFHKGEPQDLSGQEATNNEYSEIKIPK

[4] = biological target: Sialic acid-binding Ig-like lectin 7 (Homo sapiens) (UniProt Q9Y286); assay: Potency index, ratio of test compound IC50 to (2R,4S,5R,6R)-2-(3-(4-([1,1'-biphenyl]-4-yl)-1H-1,2,3-triazol-1-yl)propoxy)-5-acetamido-6-((1R,2R)-1,2-dihydroxy-3-(methylsulfonamido)propyl)-4-hydroxytetrahydro-2H-pyran-2-carboxylate Sodium IC50 for competitive inhibition of IgG1-fused human Siglec-7 Fc domain preincubated for 10 mins followed by addition of red blood cells incubated for 20 mins on ice by sandwich FACS analysis; conditions: time 30.0 min
[5] = Solubility in PBS; format: physicochemical; conditions: buffer

Row | SMILES | Ratio IC50 [3] | Ratio IC50 [4] | also measured
1 | N[C@H]1[C@H]([C@H](O)[C@H](O)CO)O[C@@](OCCCn2cc(-c3ccc(-c4ccccc4)cc3)nn2)(C(=O)O)C[C@@H]1O |  |  | solubility [1]: Insoluble; solubility [2]: Insoluble
2 | CC(=O)N[C@H]1[C@H]([C@H](O)[C@H](O)CC(=O)O)O[C@@](OCCCn2cc(-c3ccc(-c4ccccc4)cc3)nn2)(C(=O)O)C[C@@H]1O | 0.75 |  | 
3 | O=C(CO)N[C@H]1[C@H]([C@H](O)[C@H](O)CO)O[C@@](OCCCn2cc(-c3ccc(-c4ccccc4)cc3)nn2)(C(=O)O)C[C@@H]1O | 1.5 |  | 
4 | O=C(CF)N[C@H]1[C@H]([C@H](O)[C@H](O)CO)O[C@@](OCCCn2cc(-c3ccc(-c4ccccc4)cc3)nn2)(C(=O)O)C[C@@H]1O | 1.6 |  | 
5 | CC(=O)N[C@H]1[C@H]([C@H](O)[C@H](O)CCNC(=O)Cc2ccccc2)O[C@@](OCCCn2cc(-c3ccc(-c4ccccc4)cc3)nn2)(C(=O)O)C[C@@H]1O | < 0.5 |  | 
6 | CS(=O)(=O)NC[C@@H](O)[C@@H](O)[C@@H]1O[C@@](OCCCn2cc(-c3ccc(-c4ccccc4)cc3)nn2)(C(=O)O)C[C@H](O)[C@H]1NC(=O)CF |  | 1.5 | 
7 | CS(=O)(=O)NC[C@@H](O)[C@@H](O)[C@@H]1O[C@@](OCCCn2cc(-c3ccc(-c4ccccc4)cc3)nn2)(C(=O)O)C[C@H](O)[C@H]1NC(=O)CO |  | 1.2 | 
8 | CS(=O)(=O)NC[C@@H](O)[C@@H](O)[C@@H]1O[C@@](OCCCn2cc(-c3ccc(-c4ccccc4)cc3)nn2)(C(=O)O)C[C@H](O)[C@H]1NC(=O)COCc1ccccc1 |  | 0.3 | 
9 | CCC(=O)NCC[C@@H](O)[C@@H](O)[C@@H]1O[C@@](OCCCn2cc(-c3ccc(-c4ccccc4)cc3)nn2)(C(=O)O)C[C@H](O)[C@H]1NC(C)=O | < 0.5 |  | 
10 | O=C(COCc1ccccc1)N[C@H]1[C@H]([C@H](O)[C@H](O)CO)O[C@@](OCCCn2cc(-c3ccc(-c4ccccc4)cc3)nn2)(C(=O)[O-])C[C@@H]1O.[Na+] |  |  | solubility [1]: Insoluble; solubility [5]: Insoluble
